US20070219212A1, “Pyranouidole Derivatives and the Use Thereof for the Treatment of Hepatitis C Virus Infection or Disease” (priority 2004, published 2007)
Read-outs that look alike come from different tables or passages of the source.

Legend:
[1] = biological target: T1, NS5B from the BK strain (genotype 1b) (Hepatitis C virus genotype 1b, UniProt P26663); assay: Hepatitis C polymerase (NS5B, BK strain) inhibition, radioactive filter assay; assay type: biochemical; conditions: NS5B BK strain (genotype 1b)
T1 construct: NS5B from the BK strain (genotype 1b) is expressed in E coli as a protein in which the 21 C-terminal amino acids are replaced; made in house; host or cells: E. coli
T1 sequence (P26663 2420-2989): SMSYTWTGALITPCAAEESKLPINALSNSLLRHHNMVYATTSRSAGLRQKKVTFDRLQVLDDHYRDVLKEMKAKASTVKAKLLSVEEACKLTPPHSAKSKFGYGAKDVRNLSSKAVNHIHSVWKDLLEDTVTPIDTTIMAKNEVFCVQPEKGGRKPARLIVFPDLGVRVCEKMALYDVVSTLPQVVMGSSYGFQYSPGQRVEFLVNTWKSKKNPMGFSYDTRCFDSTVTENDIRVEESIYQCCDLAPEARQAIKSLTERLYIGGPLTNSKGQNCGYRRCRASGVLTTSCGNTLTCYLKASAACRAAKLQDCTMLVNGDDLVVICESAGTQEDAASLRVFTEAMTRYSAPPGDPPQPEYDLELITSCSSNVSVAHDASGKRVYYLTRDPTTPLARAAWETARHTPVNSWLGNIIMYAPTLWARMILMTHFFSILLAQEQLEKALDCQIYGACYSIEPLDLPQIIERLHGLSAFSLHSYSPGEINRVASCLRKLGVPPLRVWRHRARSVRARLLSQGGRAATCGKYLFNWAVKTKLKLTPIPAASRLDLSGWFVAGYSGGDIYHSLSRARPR
Description: (§1) The ability of the compounds of the present invention to inhibit Hepatitis C Polymerase was established by the following experimental procedure:
NS5B from the BK strain (genotype 1b) is expressed in E coli as a protein in which the 21 C-terminal amino acids are replaced with a short linker and a hexahistidine tag ([…]). The purified protein is mixed with radioactive nucleotides and allowed to replicate a heteropolymeric RNA substrate, primed by an endogenous short hairpin, resulting in an approximately 760 nt product. The radioactive product is captured on a filter and quantitated after removal of the unincorporated nucleotides.
(§2) • 0.5M Na Phosphate buffer. Per liter, weigh 134 gr Na2HPO4.7H2O, add water to 900 ml. Adjust pH to 7.0 with phosphoric acid. Top off with water to 1 L. • Dilute nucleotides 1:1000 to 10 μM (GTP and CTP) or 1:100 to 100 μM (ATP and UTP) into RNase free water. Procedure: • (1) Compounds 10 μl at […] in 15% dimethylsulfoxide (DMSO) When starting from 100 μg/ml compound stock in 1% DMSO: Dispense 5 μl 30% DMSO per well Dispense 5 μl compound (100 μg/ml) per well. When starting from 50 μg/ml compound stock in 15% DMSO: Add 10 μl compound per well.
(§3) Add 20 μl enzyme mix into each well of the assay plate. Incubate compound and enzyme at room temperature for 15 minutes • (3) Template mix—prepare ahead
(§4) Spin down a tube of RNA (5 μg/tube stored in 75% ethanol and 0.3 M sodium acetate) in a microcentrifuge for 20 minutes at 4° C. One tube is enough for 1-1.5 plates. Remove as much ethanol from the tube as possible by inverting the tube. Be gentle, pellet RNA may not adhere to the tube. Vacuum dry the RNA. Resuspend the RNA by adding 1 ml of DEPC water, close the cap of the tube tightly. To dissolve RNA, incubate RNA solution on ice for ˜60 minutes and gently vortex. Spin briefly to ensure all RNA solution is down to the bottom of the tube before opening cap. Gently transfer RNA solution into a 5 ml or larger tube. Add another 3 ml of DEPC water (total 4 ml of volume).
(§5) Add the following volumes of reagents
(§6) Add 20 μl template mix per reaction (i.e. 20 ng of pOF per reaction or ˜3 nM) • (4) Incubate reaction at room temperature (22-25° C.) for 2 hours. • (5) Stop reaction by adding 50 μl of 170 mM EDTA.
(§7) Final concentration of EDTA is 85 mM. • (6) Prewet filters of Millipore multiscreen assay plate by adding 200 μl of 0.5 M sodium phosphate buffer, pH 7.0 into each well. Let stand at room temperature for 2-3 minutes. • (7) Place the multiscreen filter plate onto a Millipore Manifold and turn on vacuum to allow buffer to flow through. Turn off vacuum. Transfer 80 μl of the reaction product into each well of the filter plate. Let stand for 2-3 minutes. Turn on vacuum to filter reaction product. • (8) Turn off vacuum. Add 200 μl of 0.5 M sodium phosphate buffer, pH 7.0 into each well to wash filter. Turn on vacuum.
(§8) Repeat step (8) three more times. • (9) Remove polypropylene bottom. Spot dry filter at the bottom with paper towel. Air dry filter plate on a bench for 1 hour. Add 40 μl Super Mix scintillant. Seal top of the plate with a tape. Place plate into a Packard carrier or micro-beta carrier. • (10) Count plate using a Packard Topcount or micro-beta counter. Count (for example using Program 10) for ^33P in Top count or ^33P program in micro-beta.
(§9) See, Ferrari et al. 1999. J. Virology 73:1649-1654: “Characterization of soluble Hepatitis C virus RNA-dependent RNA polymerase expressed in E. coli and Takamizawa et al. 1991” and J. Virology 65:1105-1113: “Structure and characterization of the Hepatitis C virus genome isolated from human carriers,” both references are hereby incorporated by reference.

[2] = biological target: BB7 RNA-dependent RNA polymerase hepatitis C virus protein (Con1 HCV sequence) (Hepatitis C virus genotype 1b, UniProt Q9WMX2); assay: Hepatitis C polymerase (BB7) inhibition; assay type: biochemical
Sequence of BB7 RNA-dependent RNA polymerase hepatitis C virus protein (Con1 HCV sequence) (Q9WMX2 2420-3010): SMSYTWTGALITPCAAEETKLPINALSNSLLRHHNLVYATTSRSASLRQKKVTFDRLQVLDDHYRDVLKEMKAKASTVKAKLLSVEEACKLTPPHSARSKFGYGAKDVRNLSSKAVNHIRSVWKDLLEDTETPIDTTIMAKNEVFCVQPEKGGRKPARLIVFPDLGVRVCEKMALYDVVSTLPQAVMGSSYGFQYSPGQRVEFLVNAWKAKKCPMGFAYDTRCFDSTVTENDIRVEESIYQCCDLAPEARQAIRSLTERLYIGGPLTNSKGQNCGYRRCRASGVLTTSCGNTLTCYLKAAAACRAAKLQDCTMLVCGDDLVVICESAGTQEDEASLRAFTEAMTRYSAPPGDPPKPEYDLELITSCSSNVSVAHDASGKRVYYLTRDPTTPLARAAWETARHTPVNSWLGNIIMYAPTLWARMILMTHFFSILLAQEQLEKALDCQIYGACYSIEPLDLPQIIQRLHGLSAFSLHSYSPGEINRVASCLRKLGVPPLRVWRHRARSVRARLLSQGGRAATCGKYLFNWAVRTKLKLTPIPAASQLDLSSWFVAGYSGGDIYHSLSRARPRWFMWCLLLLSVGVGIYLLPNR
Description: For purposes of this invention, the term “BB7” denotes an RNA-dependent RNA polymerase hepatitis C virus protein sequence which is derived from HCV replicon. A discussion of BB7 and related technology can be found in Blight, K. et al. (2000) Science 290:1972-1974. BB7 can be licensed from Apath, LLC (893 North Warson Road, Saint Louis Mo. 63141, USA). BB7 is also referred to as Con1 HCV sequence and discussions of Con1 can be found in the following references: Lohmann, V. et al. (1999) Science 285:110-113; Pietschmann, T. et al. (2001) J. Virol. […]:1252-1264; Lohmann, V. et al. (2001) J. Virol. 75:1437-1449.
as §1, §2, §3, §4, §5, §6, §7, §8, §9

[3] = BB7 (Con1) NS5B, read-out: BB7 IC50

Structure (SMILES)	IC50 [1] [nM]	IC50 [2] [nM]	IC50 [2, 3] [nM]
CCCC1(CC(=O)O)OCCc2c1[nH]c1c(C)c(OCc3cccnc3N)cc(C#N)c21 (centres unmarked) [Example 51]	< 500	< 500	–
CCCC1(CC(=O)O)OCCc2c1[nH]c1c(C)c(OCc3ccnc(C)c3)cc(C#N)c21 (centres unmarked) [Example 52]	< 500	< 500	–
CCC[C@]1(CC(=O)O)OCCc2c1[nH]c1c(C)c(OCc3ccnc(C)c3)cc(C#N)c21 [Example 53]	< 500	< 500	–
CCCC1(CC(=O)O)OCCc2c1[nH]c1c(C)c(OCc3ccnc(N)c3)cc(C#N)c21 (centres unmarked) [Example 54]	< 500	< 500	–
CCCC1(CC(=O)O)OCCc2c1[nH]c1c(C)c(OCc3cc(C)on3)cc(C#N)c21 (centres unmarked) [Example 56]	< 500	< 500	–
CCC[C@@]1(CC(=O)O)OCCc2c1[nH]c1c(C)c(OCc3cc(C)on3)cc(C#N)c21 [Example 57]	> 5000	500 to 5000	–
CCCC1(CC(=O)O)OCCc2c1[nH]c1c(C)c(OCCN3CCCC3)cc(C#N)c21 (centres unmarked) [Example 58]	500 to 5000	500 to 5000	–
CCCC1(CC(=O)O)OCCc2c1[nH]c1c(C)c(OCc3cccc(N)n3)cc(C#N)c21 (centres unmarked) [Example 59]	< 500	< 500	–
CCCC1(CC(=O)O)OCCc2c1[nH]c1c(C)c(OCc3nccs3)cc(C#N)c21 (centres unmarked) [Example 60]	< 500	< 500	–
CCCC1(CC(=O)O)OCCc2c1[nH]c1c(C)c(OCc3ccnc(C(=O)O)c3)cc(C#N)c21 (centres unmarked) [Example 61]	< 500	< 500	–
CCCC1(CC(=O)O)OCCc2c1[nH]c1c(C)c(OCc3cccnc3C)cc(C#N)c21 (centres unmarked) [Example 62]	< 500	–	< 500
CCCC1(CC(=O)O)OCCc2c1[nH]c1c(C)c(OCc3cccc(C)n3)cc(C#N)c21 (centres unmarked) [Example 63]	< 500	–	< 500
CCCC1(CC(=O)O)OCCc2c1[nH]c1c(C)c(OCc3cnccn3)cc(C#N)c21 (centres unmarked) [Example 64]	< 500	< 500	–
CCCC1(CC(=O)O)OCCc2c1[nH]c1c(C)c(OCc3ccnc(C(N)=O)c3)cc(C#N)c21 (centres unmarked) [Example 65]	< 500	< 500	–
CCCC1(CC(=O)O)OCCc2c1[nH]c1c(C)c(OCc3cc(C)nn3C)cc(C#N)c21 (centres unmarked) [Example 66]	< 500	< 500	–
CCCC1(CC(=O)O)OCCc2c1[nH]c1c(C)c(OCc3ccc(N4CCOCC4)nc3)cc(C#N)c21 (centres unmarked) [Example 68]	< 500	< 500	–
CCCC1(CC(=O)O)OCCc2c1[nH]c1c(C)c(OCc3ccc(N)nc3)cc(C#N)c21 (centres unmarked) [Example 69]	< 500	< 500	–
CCCC1(CC(=O)O)OCCc2c1[nH]c1c(C)c(OCc3ccc(C)nc3)cc(C#N)c21 (centres unmarked) [Example 70]	< 500	< 500	–
CCCC1(CC(=O)O)OCCc2c1[nH]c1c(C)c(OCc3cc[n+]([O-])cc3)cc(C#N)c21 (centres unmarked) [Example 71]	< 500	< 500	–
CCCC1(CC(=O)O)OCCc2c1[nH]c1c(C)c(OCc3csc(C(C)C)n3)cc(C#N)c21 (centres unmarked) [Example 72]	< 500	–	< 500
CCCC1(CC(=O)O)OCCc2c1[nH]c1c(C)c(OCc3ccc(C(F)(F)F)nc3)cc(C#N)c21 (centres unmarked) [Example 73]	< 500	< 500	–
CCCC1(CC(=O)O)OCCc2c1[nH]c1c(C)c(OCC3CCNCC3)cc(C#N)c21 (centres unmarked) [Example 74]	< 500	< 500	–

Structure (SMILES)	IC50 [1] [nM]	IC50 [2] [nM]	IC50 [2, 3] [nM]
CCCC1(CC(=O)O)OCCc2c1[nH]c1c(C)c(OCc3nn(C)cc3Cl)cc(C#N)c21 (centres unmarked) [Example 75]	< 500	< 500	–
CCCC1(CC(=O)O)OCCc2c1[nH]c1c(C)c(OCc3c[nH]cn3)cc(C#N)c21 (centres unmarked) [Example 76]	< 500	–	< 500
CCCC1(CC(=O)O)OCCc2c1[nH]c1c(C)c(OCc3conc3C)cc(C#N)c21 (centres unmarked) [Example 77]	< 500	< 500	–
CCCC1(CC(=O)O)OCCc2c1[nH]c1c(C)c(OCc3cc(C)n(C)n3)cc(C#N)c21 (centres unmarked) [Example 78]	< 500	< 500	–
CCCC1(CC(=O)O)OCCc2c1[nH]c1c(C)c(OCc3cc(C)no3)cc(C#N)c21 (centres unmarked) [Example 79]	< 500	< 500	–
CCCC1(CC(=O)O)OCCc2c1[nH]c1c(C)c(OCc3c(C)noc3C)cc(C#N)c21 (centres unmarked) [Example 80]	< 500	< 500	–
CCCC1(CC(=O)O)OCCc2c1[nH]c1c(C)c(OCc3cc(Br)no3)cc(C#N)c21 (centres unmarked) [Example 81]	< 500	< 500	–
CCCC1(CC(=O)O)OCCc2c1[nH]c1c(C)c(OCc3ccn(C)n3)cc(C#N)c21 (centres unmarked) [Example 82]	< 500	< 500	–
CCCC1(CC(=O)O)OCCc2c1[nH]c1c(C)c(OCc3cc[nH]n3)cc(C#N)c21 (centres unmarked) [Example 83]	< 500	< 500	–
CCCC1(CC(=O)O)OCCc2c1[nH]c1c(C)c(OC(C)c3cc(C)n(C)n3)cc(C#N)c21 (centres unmarked) [Example 84]	< 500	–	< 500
CCCC1(CC(=O)O)OCCc2c1[nH]c1c(C)c(OCc3csc(C(C)(C)C)n3)cc(C#N)c21 (centres unmarked) [Example 85]	< 500	< 500	–
CCCC1(CC(=O)O)OCCc2c1[nH]c1c(C)c(OCc3nc(C)ccc3OC)cc(C#N)c21 (centres unmarked) [Example 86]	< 500	< 500	–
CCCC1(CC(=O)O)OCCc2c1[nH]c1c(C)c(OCc3nnc(C(C)(C)C)s3)cc(C#N)c21 (centres unmarked) [Example 87]	< 500	< 500	–
CCCC1(CC(=O)O)OCCc2c1[nH]c1c(C)c(OCc3noc(C(C)(C)C)n3)cc(C#N)c21 (centres unmarked) [Example 88]	< 500	< 500	–
CCCC1(CC(=O)O)OCCc2c1[nH]c1c(C)c(OCCCc3cc(C)no3)cc(C#N)c21 (centres unmarked) [Example 89]	< 500	< 500	–
CCCC1(CC(=O)O)OCCc2c1[nH]c1c(C)c(OCc3ccnc(C(C)=O)c3)cc(C#N)c21 (centres unmarked) [Example 90]	< 500	< 500	–
CCCC1(CC(=O)O)OCCc2c1[nH]c1c(C)c(OCc3ccnc(C(C)(C)O)c3)cc(C#N)c21 (centres unmarked) [Example 91]	< 500	< 500	–
CCCC1(CC(=O)O)OCCc2c1[nH]c1c(C)c(OCc3ccnc(C(C)O)c3)cc(C#N)c21 (centres unmarked) [Example 92]	< 500	< 500	–
CCCC1(CC(=O)O)OCCc2c1[nH]c1c(C)c(OCc3ccnc(NC(C)=O)c3)cc(C#N)c21 (centres unmarked) [Example 93]	< 500	< 500	–
CCCC1(CC(=O)O)OCCc2c1[nH]c1c(C)c(OCc3ccnc(COC)c3)cc(C#N)c21 (centres unmarked) [Example 94]	< 500	–	< 500
CCCC1(CC(=O)O)OCCc2c1[nH]c1c(C)c(OCc3ccnc(C(C)=NOC)c3)cc(C#N)c21 (centres unmarked) [Example 95]	< 500	< 500	–
